The compounds below were run on male Wistar rats (assay: Antiinflammatory activity by air pouch technique (croton oil)). Conditions: Rattus norvegicus, 192 h, 25 mg/kg/day into the pouch in 5% gum arabic, once a day for 6 days, amount of exudate on day 8 vs control group, ** p<0.01, * p<0.05, read-out: Antiinflammatory rate (%).
Assay type: in vivo
Experimental: The antiinflammatory activity of the compound of the invention was determined by an air pouch technique generally comforming to the method described in the literature [Proc. Soc. Exp. Biol. Med., 82 , 328-333, 1953].
The test was carried out using male Wistar rats (average body weight 200 g, 7 animals per group). A thick paper sheet with an oval cutout (2 x 5 cm) was attached to the clipped back of the animal under pentobarbital anesthesia. The skin was picked up through the central cutout and 10 ml of air was injected subcutaneously to prepare an air pouch. Then, 1 ml of 2% croton oil, as a phlogogenic agent, was injected into the pouch. The paper sheet was removed and the animal was gently rotated in order that the croton oil would be thoroughly contacted with the inner wall of the pouch.
The test compound suspended in 5% gum arabic was administered into the pouch (25 mg/kg/day) once a day for 6 days beginning the day after preparation of the pouch. The group of animals subjected to the above treatment was designated as the experimental group.
On day 8, the animals were bled to death and the amount (ml) of exudate in the pouch was measured. The antiinflammatory rate was calculated with the result in the control group ( a group not receiving the test compound) as a reference according to the following equation. [formula]

| SMILES | inhibition in vivo at 25 mg/kg/day [%] |
| --- | --- |
| CC(C)(C)c1cc(Nc2ncccn2)cc(C(C)(C)CO)c1O [Compound 10] | 24 |
| CC(=O)OCC(C)(C)c1cc(Nc2nccs2)cc(C(C)(C)C)c1O [Compound 13, 2-(2-acetoxy-1,1-dimethylethyl)-6-(1,1-dimethylethyl)-4-(2-thiazolylamino)phenol] | 60 |
| CC(C)(C)c1cc(Nc2ccccc2)cc(C(C)(C)CO)c1O [Compound 6] | 14 |
| CC(=O)OCC(C)(C)c1cc(N(C(C)=O)c2nccs2)cc(C(C)(C)C)c1O [Compound 14, 2-(2-acetoxy-1,1-dimethylethyl)-6-(1,1-dimethylethyl)-4-[N-acetyl-N-(2-thiazolyl)amino]phenol] | 51 |
| CC(C)(C)c1cc(Nc2nccs2)cc(C(C)(C)CO)c1O [Compound 3, 2-(1,1-Dimethylethyl)-6-(1,1-dimethyl-2-hydroxyethyl)-4-[N-(2-thiazolyl)amino]phenol] | 71 |
| CC(C)(C)c1cc(Nc2cccnc2)cc(C(C)(C)CO)c1O [Compound 8] | 19 |
| CC(C)(C)c1cc(Nc2nc(CC(=O)O)cs2)cc(C(C)(C)CO)c1O [Compound 15, 2-[3-(1,1-dimethylethyl)-5-(1,1-dimethyl-2-hydroxyethyl)-4-hydroxyphenylamino]-4-thiazolylacetic acid] | 32 |
| CC(C)(C)c1cc(Nc2cnccn2)cc(C(C)(C)CO)c1O [Compound 1, 2-(1,1-dimethylethyl)-6-(1,1-dimethyl-2-hydroxyethyl)-4-pyrazinylaminophenol] | 68 |
| CC(C)(C)c1cc(Nc2nccnn2)cc(C(C)(C)CO)c1O [Compound 11] | 20 |
